According to US5773646A, “Meta-substituted phenylene derivatives” (G. D. Searle & Co., priority 1997, dated 1998):
Structures can show the parent of a compound that is named as a salt.

Columns and labels:
[1] = biological target: T1, Human fibrinogen receptor (αIIb β3) (Homo sapiens, UniProt P05106+P08514); assay: Purified IIb/IIIa receptor assay (solid phase receptor assay, biotinylated vitronectin competition); conditions: inhibition of 50% of the maximum binding of biotinylated vitronectin; 1 nM labeled ligand, 2 hours, room temperature, highest concentration of test compound 1.0×10^-4 M
T1 construct: Human fibrinogen receptor (αIIb β3) was purified from outdated platelets; from tissue; host or cells: outdated human platelets
Procedure, shortened: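 Platelet-purified αIIbβ3 was coated at 100 ng/well in TBS with 1 mM Ca²⁺/Mg²⁺/Mn²⁺, pH 7.4, then BSA-blocked. Compound (up to 1.0×10⁻⁴ M final) competed with 1 nM biotinylated vitronectin for 2 h at room temperature. Bound ligand was detected with HRP anti-biotin at A450, normalized to maximum binding, and curve-fitted.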

[2] = biological target: T2, Human vitronectin receptor (αv β3) (Homo sapiens, UniProt P05106+P06756); assay: Vitronectin adhesion assay (solid phase receptor assay, biotinylated vitronectin competition); type: binding; conditions: inhibition of 50% of the maximum binding of biotinylated vitronectin; 1 nM labeled ligand, 2 hours, room temperature, highest concentration of test compound 1.0×10^-4 M; read-out: AvB3 IC50
T2 construct: Human vitronectin receptor(αv β3) was purified from human placenta; from tissue; host or cells: human placenta
Procedure, shortened: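 Placenta-purified αvβ3 coated at 1.0 μg/mL in TBS (1 mM Ca, Mg, Mn, pH 7.4), overnight 4 °C. Compound competed 2 h at RT with 1 nM biotinylated vitronectin (final; top compound 1.0×10^-4 M); bound ligand detected by HRP anti-biotin/OPD at 450 nm, normalized to no-competitor controls, four-parameter fit.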

Row | IC50 [1] [nM] | IC50 [2] [nM] | Structure (SMILES)
1 | 9750 | 30.4 | O=C(O)CCc1cccc(OCC(O)c2cccc(NC3=NCCN3)c2)c1 (stereo not drawn) [Example 71, 3-[2-[3-[(4,5-dihydro-1H-imidazol-2-yl)amino]phenyl]-2-hydroxyethoxy]benzenepropanoic acid, trifluoroacetate salt]
2 | 8100 | 168 | O=C(O)COc1cccc(C(=O)/C=C/c2cccc(NC3=NCCN3)c2)c1 [Example 72, 2-[3-[3-[3-[(4,5-dihydro-1H-imidazol-2-yl)amino]phenyl]-1-oxo-2-propenyl]phenoxy]acetic acid, trifluoroacetate salt hydrate]
3 | 11300 | 589 | N=C(N)Nc1cccc(/C=C/C(=O)c2cccc(OCC(=O)O)c2)c1 [Example 73, 2-[3-[3-[3-[(aminoiminomethyl)amino]phenyl]-1-oxopropenyl]phenoxy]acetic acid, monohydrochloride]
4 | 20100 | 1480 | N=C(N)Nc1cccc(C#Cc2cccc(C(CC(=O)O)c3ccccc3)c2)c1 (stereo not drawn) [Example 74, 3-[2-[3-[(aminoiminomethyl)amino]phenyl]ethynyl]-β-phenylbenzenepropanoic acid, trifluoroacetate salt]
5 | 6150 | 54.5 | N=C(N)Nc1cccc(/C=C/c2cccc(C(CC(=O)O)c3ccccc3)c2)c1 (stereo not drawn) [Example 75, 3-[2E-[3-[(aminoiminomethyl)amino]phenyl]ethenyl]-β-phenylbenzenepropanoic Acid, Bis(trifluoroacetate) Salt]
6 | 1770 | 87 | N=C(N)Nc1cccc(/C=C\c2cccc(C(CC(=O)O)c3ccccc3)c2)c1 (stereo not drawn) [Example 76, 3-[2Z-[3-[(aminoiminomethyl)amino]phenyl]ethenyl]-β-phenylbenzenepropanoic Acid, Bis(trifluoroacetate) Salt]
7 | 5820 | 32.5 | N=C(N)Nc1cccc(S(=O)(=O)Nc2cccc(C(CC(=O)O)c3cc(Cl)cc(Cl)c3)c2)c1 (stereo not drawn) [Example 77, β-[3-[[[3-[(aminoiminomethyl)amino]phenyl]sulfonyl]amino]phenyl]-3,5-dichlorobenzene Propanoic Acid, Trifluoroacetate Salt]
8 | 803 | 2.54 | N=C(N)Nc1cccc(S(=O)(=O)Nc2cccc(C(CC(=O)O)c3cc(F)cc(F)c3)c2)c1 (stereo not drawn) [Example 78, β-[3-[[[3-[(aminoiminomethyl)amino]phenyl]sulfonyl]amino]phenyl]-3,5-difluorobenzenepropanoic Acid, Trifluoroacetate Salt]
9 | 327 | 10 | N=C(N)Nc1cccc(S(=O)(=O)Nc2cccc(C(CC(=O)O)c3ccc(F)cc3)c2)c1 (stereo not drawn) [Example 79, β-[3-[[[3-[(aminoiminomethyl)amino]phenyl]sulfonyl]amino]phenyl]-4-fluorobenzenepropanoic Acid, Trifluoroacetate Salt]
10 | 1370 | 13 | N=C(N)Nc1cccc(S(=O)(=O)Nc2cccc(C(CC(=O)O)c3cc(F)c(F)c(F)c3)c2)c1 (stereo not drawn) [Example 80, β-[3-[[[3-[(aminoiminomethyl)amino]phenyl]sulfonyl]amino]phenyl]-3,4,5-trifluorobenzenepropanoic Acid, Trifluoroacetate Salt]
11 | 2550 | 86 | N=C(N)Nc1cccc(S(=O)(=O)Nc2cccc(C(CC(=O)O)c3c(F)c(F)c(F)c(F)c3F)c2)c1 (stereo not drawn) [Example 81, β-[3-[[[3-[(aminoiminomethyl)amino]phenyl]sulfonyl]amino]phenyl]perfluorobenzenepropanoic Acid, Trifluoroacetate Salt]
12 | 11700 | 191 | N=C(N)Nc1cccc(S(=O)(=O)Nc2cccc(C(CC(=O)O)c3c(F)c(F)cc(F)c3F)c2)c1 (stereo not drawn) [Example 82, β-[3-[[[3-[(aminoiminomethyl)amino]phenyl]sulfonyl]amino]phenyl]-2,3,5,6-tetrafluorobenzenepropanoic Acid, Trifluoroacetate Salt]
13 | 18900 | 122 | O=C(O)CC(c1cc(F)cc(F)c1)c1cccc(NS(=O)(=O)c2cccc(NC(=S)NCc3ccccc3)c2)c1 (stereo not drawn) [Example 83, 3,5-difluoro-β-[3-[[[3-[[[(phenylmethyl)amino]thiocarbonyl]amino]phenyl]sulfonyl]amino]phenyl]benzenepropanoic Acid]
14 | 15100 | 82 | O=C(O)CC(c1cc(F)cc(F)c1)c1cccc(NS(=O)(=O)c2cccc(NC=NCc3ccccc3)c2)c1 (stereo not drawn) [Example 84, 3,5-difluoro-β-[3-[[[3-[[[(phenylmethyl)imino]methyl]amino]phenyl]sulfonyl]amino]phenyl]benzenepropanoic Acid, Trifluoroacetate Salt]
15 | 3300 | 51.2 | N=C(N)Nc1cccc(SCc2cccc(C(CC(=O)O)c3ccccc3)c2)c1 (stereo not drawn) [Example 87, 3-[[3-[(aminoiminomethyl)amino]phenylthio]methyl]-β-phenylbenzenepropanoic Acid, Trifluoroacetate Salt]
16 | 870 | 19.6 | N=C(N)Nc1cccc([S+]([O-])Cc2cccc(C(CC(=O)O)c3ccccc3)c2)c1 (stereo not drawn) [Example 88, 3-[[[3-[(aminoiminomethyl)amino]phenyl]sulfinyl]methyl]-β-phenylbenzenepropanoic Acid, Trifluoroacetate Salt]
17 | 799 | 4.56 | N=C(N)Nc1cccc(S(=O)(=O)Cc2cccc(C(CC(=O)O)c3ccccc3)c2)c1 (stereo not drawn) [Example 89, 3-[[[3-[(aminoiminomethyl)amino]phenyl]sulfonyl]methyl]-β-phenylbenzenepropanoic Acid, Trifluoroacetate Salt]
18 | 13800 | 88.9 | NC(=O)N=C(N)Nc1cccc(S(=O)(=O)Nc2cccc(C(CC(=O)O)c3cc(Cl)cc(Cl)c3)c2)c1 (stereo not drawn) [Example 90, β-[3-[[[3-[[amino[(aminocarbonyl)imino]methyl]amino]phenyl]sulfonyl]amino]phenyl]-3,5-dichlorobenzenepropanoic Acid, Trifluoroacetate Salt]
19 | 1070 | 8.39 | NC(=O)N=C(N)Nc1cccc(S(=O)(=O)Nc2cccc(C(CC(=O)O)c3cc(F)cc(F)c3)c2)c1 (stereo not drawn) [Example 91, β-[3-[[[3-[[amino[(aminocarbonyl)imino]methyl]amino]phenyl]sulfonyl]amino]phenyl]-3,5-difluorobenzenepropanoic Acid, Trifluoroacetate Salt]
20 | 2050 | 12.1 | CCC(CC(=O)O)c1cccc(NS(=O)(=O)c2cccc(NC(=N)N)c2)c1 (stereo not drawn) [Example 94, 3-[[[3-[(aminoiminomethyl)amino]phenyl]sulfonyl]amino]-β-ethylbenzenepropanoic Acid, Trifluoroacetate Salt]
21 | 8450 | 35.7 | CCC(CC(=O)O)c1cccc(NS(=O)(=O)c2cccc(NC(N)=NC(N)=O)c2)c1 (stereo not drawn) [Example 95, 3-[[[3-[[amino[(aminocarbonyl)imino]methyl]amino]phenyl]sulfonyl]amino]-β-ethylbenzenepropanoic Acid, Trifluoroacetate Salt]
22 | 2280 | 435 | N=C(N)Nc1cccc(COc2cccc(C(CC(=O)O)c3ccccc3)c2)c1 (stereo not drawn) [Example 96, 3-[[3-[(aminoiminomethyl)amino]phenyl]methoxy]-β-phenylbenzenepropanoic Acid, Trifluoroacetate Salt]
23 | 262 | 0.75 | O=C(O)CC(c1cc(F)cc(F)c1)c1cccc(NS(=O)(=O)c2cccc(NC3=NCCCN3)c2)c1 (stereo not drawn) [Example 97, 3,5-difluoro-β-[3-[[[3-[(1,4,5,6-tetrahydropyrimidin-2-yl)amino]phenyl]sulfonyl]amino]phenyl]benzenepropanoic Acid, Bis(trifluoroacetate) Salt]
24 | 642 | 0.85 | O=C(O)CC(c1cc(F)cc(F)c1)c1cccc(NS(=O)(=O)c2cccc(NC3=NCCN3)c2)c1 (stereo not drawn) [Example 98, β-[3-[[[3-[(4,5-dihydro-1H-imidazol-2-yl)amino]phenyl]sulfonyl]amino]phenyl]-3,5-difluorobenzenepropanoic Acid, Trifluoroacetate Salt]
25 | 1000 | 48.6 | O=C(O)CC(c1ccccc1)c1cccc(OCc2cccc(NC3=NCCN3)c2)c1 (stereo not drawn) [Example 99, 3-[[3-[(4,5-dihydro-1H-imidazol-2-yl)amino]phenyl]methoxy]-β-phenylbenzenepropanoic Acid, Trifluoroacetate Salt]
26 | 2340 | 21.8 | N=C(N)Nc1cccc(S(=O)(=O)Nc2cccc(C3CC(=O)Oc4ccccc43)c2)c1 (stereo not drawn) [Example 100, 3-[(aminoiminomethyl)amino]-N-[3-(3,4-dihydro-2-oxo-2H-benzopyran-4-yl)phenyl]benzenesulfonamide, Trifluoroacetate Salt]
27 | 3250 | 50.3 | O=C1CC(c2cccc(NS(=O)(=O)c3cccc(NC4=NCCN4)c3)c2)c2ccccc2O1 (stereo not drawn) [Example 101, 3-[(4,5-dihydro-1H-imidazol-2-yl)amino]-N-[3-(3,4-dihydro-2-oxo-2H-benzopyran-4-yl)phenyl]benzenesulfonamide, Trifluoroacetate Salt]
